Laboratory results reported in PubChem BioAssay AID1963854 (Molecular Pharmacology Branch, DTP, NCI, 2024).
Where “and” joins values, the source holds several entries; their conditions need not be identical. Identical values can stand only once.

Test system: 186277-243-T-J2-PDC complex spheroid viability
Assay: Anticancer human tumor 186277-243-T-J2-PDC patient-derived colon adenocarcinoma cell line growth inhibition [POLQ]
Settings: for viability, T/C: stronger effect = lower value
Method: Multicellular complex tumor spheroid response to Polymerase (POL) inhibitors (novobiocin, ART-558, RP6685) in combination with a variety of drugs and investigational agents in selected tumor cell lines
The POL inhibitors (novobiocin, ART-558, and RP6685) were evaluated both individually and in combination with standard of care and investigational anticancer small molecules within a complex spheroid model of solid tumors. . Complex spheroids include a stromal component modeled by human endothelial cells (HUVEC) and fibroblasts modeled by human mesenchymal stem cells (MSCs). The concentration ranges selected for each drug and investigational agent were based upon clinically achievable concentrations if the clinical Cmax of the agent was known.
Compounds. The drugs and investigational agents: novobiocin (NSC847541), ART-558 (NSC835418), RP-6685 (NSC848927), peposertib (NSC802822), ceralasertib (NSC780249), elimusertib (NSC800525), camonsertib (NSC841442), AZD-1390 (NSC803789), olaparib (NSC753686), talazoparib (NSC767125), rucaparib (NSC756644), sotorasib (NSC818433), MRTX-1133 (NSC836407), SN-38 (NSC673596), topotecan (NSC609699), epotoside (NSC141540), doxorubicin (NSC123127), gemcitabine (NSC613327), 5-fluorouracil (NSC19893), paclitaxel (NSC125973), vemurafenib (NSC761431), MSA-2 (NSC828583), SN-011 (NSC837082), adavosertib (NSC754352), prexasertib (NSC758257), carboplatin (NSC241240) and oxaliplatin (NSC266046), were obtained from the National Cancer Institute (NCI) Developmental Therapeutics Program Chemical Repository (21). The FDA-approved anticancer drug set is available from the Developmental Therapeutics Program at https://dtp.cancer.gov/organization/dscb/obtaining/. […] The stock solutions were prepared in dimethyl sulfoxide (DMSO, Sigma-Aldrich, St. Louis, MO, cat. D2650), except for the platinum compounds which were prepared in saline (Quality Biological, Gaithersburg, MD, cat. 114-055-101), at 800-fold the tested concentration and stored at -70 degrees C prior to their use. All drugs and investigational agents were tested over a range starting from a high concentration at or near the clinical Cmax and decreasing in half-log increments. If the clinical Cmax for an agent had not been determined, the highest concentration tested was 10 microM, except for SN-38, which was tested at a high concentration of 1 microM.
Cell Culture. All cells were maintained in an incubator at 37 degrees C and 5% CO2 with 95% humidity. The PDC lines were cultured according to standard operating procedures established by the NCI PDMR (https://pdmr.cancer.gov). Table 3 of the manuscript, lists the cell lines along with the number of the three cell types plated to form the mct-spheroids and media for tumor cell growth. After thawing, all PDC lines, except 997537-175-T-J1-PDC and 415267-285-R-J2-PDC, were cultured in Matrigel-coated flasks prepared with a working solution of 1X Ham's F-12 nutrient mix, without supplementation (Thermo Fisher Scientific, cat. 11765054), 100 U/mL penicillin-streptomycin (Thermo Fisher Scientific, cat. 15140122), and 2.5% Matrigel (Corning Inc., Corning, NY, cat. 354248) for the first three passages. The two PDC lines 997537-175-T-J1-PDC and 415267-285-R-J2-PDC were cultured on uncoated flasks. The 857933-349-R-J2-PDC line was cultured in 6C/Colon 1B media containing advanced DMEM/F-12 (Thermo Fisher Scientific, cat. 12634028), 10 mM HEPES (Thermo Fisher Scientific, cat. 15630080), 1X GlutaMAX supplement (Thermo Fisher Scientific, cat. 35050061), 0.1 mg/mL primocin (InvivoGen, San Diego, CA, cat. ant-pm-2), 10% defined fetal bovine serum, heat inactivated (HyClone Laboratories Inc., Logan, UT, cat. SH30070.03HI), 50% L-WRN conditioned media (ATCC, cat. CRL-3276), 1.25 mM N-Acetyl-L-cysteine (Sigma-Aldrich, cat. A9165), 10 mM nicotinamide (Sigma-Aldrich, cat. N0636), 1X B-27 supplement (Thermo Fisher Scientific, cat. 17504044), 1X N-2 supplement (Thermo Fisher Scientific, cat. […]
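Note: spheroids exposed to compounds for seven days.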
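Throughout, for viability, T/C: 100% = DMSO vehicle control viability.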

SMILES: CC(C)n1c(=O)n(C)c2cnc3cc(F)c(-c4ccc(OCCCN5CCCCC5)nc4)cc3c21 + Cc1cccc(N(C)C(=O)C2C(O)CCN2c2nc(C)cc(C(F)(F)F)c2C#N)c1
- IC50 (curve of first compound, second compound 0.0316 µM): > 10 µM
- IC50 (curve of first compound, second compound 0.1 µM): > 10 µM
- IC50 (curve of first compound, second compound 0.316 µM): > 10 µM
- IC50 (curve of first compound, second compound 1 µM): > 10 µM
- IC50 (curve of first compound, second compound 3.16 µM): > 10 µM
- IC50 (curve of first compound, second compound 10 µM): > 10 µM
- viability, T/C (second compound 0.0316 µM, first compound 0.0316 µM): 101%
- viability, T/C (second compound 0.0316 µM, first compound 0.1 µM): 97.7%
- viability, T/C (second compound 0.0316 µM, first compound 0.316 µM): 94.8%
- viability, T/C (second compound 0.0316 µM, first compound 1 µM): 90.8%
- viability, T/C (second compound 0.0316 µM, first compound 3.16 µM): 119%
- viability, T/C (second compound 0.0316 µM, first compound 10 µM): 100%
- viability, T/C (second compound 0.1 µM, first compound 0.0316 µM): 88.8%
- viability, T/C (second compound 0.1 µM, first compound 0.1 µM): 93.2%
- viability, T/C (second compound 0.1 µM, first compound 0.316 µM): 103%
- viability, T/C (second compound 0.1 µM, first compound 1 µM): 92.3%
- viability, T/C (second compound 0.1 µM, first compound 3.16 µM): 98%
- viability, T/C (second compound 0.1 µM, first compound 10 µM): 88.2%
- viability, T/C (second compound 0.316 µM, first compound 0.0316 µM): 90.6%
- viability, T/C (second compound 0.316 µM, first compound 0.1 µM): 95.6%
- viability, T/C (second compound 0.316 µM, first compound 0.316 µM): 94%
- viability, T/C (second compound 0.316 µM, first compound 1 µM): 87.6%
- viability, T/C (second compound 0.316 µM, first compound 3.16 µM): 119%
- viability, T/C (second compound 0.316 µM, first compound 10 µM): 93.9%
- viability, T/C (second compound 1 µM, first compound 0.0316 µM): 104%
- viability, T/C (second compound 1 µM, first compound 0.1 µM): 107%
- viability, T/C (second compound 1 µM, first compound 0.316 µM): 99.6%
- viability, T/C (second compound 1 µM, first compound 1 µM): 102%
- viability, T/C (second compound 1 µM, first compound 3.16 µM): 102%
- viability, T/C (second compound 1 µM, first compound 10 µM): 84.5%
- viability, T/C (second compound 3.16 µM, first compound 0.0316 µM): 84.3%
- viability, T/C (second compound 3.16 µM, first compound 0.1 µM): 86.8%
- viability, T/C (second compound 3.16 µM, first compound 0.316 µM): 99.4%
- viability, T/C (second compound 3.16 µM, first compound 1 µM): 96%
- viability, T/C (second compound 3.16 µM, first compound 3.16 µM): 107%
- viability, T/C (second compound 3.16 µM, first compound 10 µM): 97.2%
- viability, T/C (second compound 10 µM, first compound 0.0316 µM): 112%
- viability, T/C (second compound 10 µM, first compound 0.1 µM): 94.6%
- viability, T/C (second compound 10 µM, first compound 0.316 µM): 103%
- viability, T/C (second compound 10 µM, first compound 1 µM): 114%
- viability, T/C (second compound 10 µM, first compound 3.16 µM): 94.9%
- viability, T/C (second compound 10 µM, first compound 10 µM): 82.7%

SMILES: CC1COCCN1c1cc(-c2ccnn2C)c2ccnc(-c3ccn[nH]3)c2n1 (centres undefined)
- viability, T/C (compound 0.0316 µM): 71.3% and 65.3% and 109%
- viability, T/C (compound 0.1 µM): 13% and 10.7% and 26.4%
- viability, T/C (compound 0.316 µM): 5.52% and 4.67% and 10.7%
- viability, T/C (compound 1 µM): 4.69% and 4.34% and 7.36%
- viability, T/C (compound 3.16 µM): 4.26% and 2.97% and 6.64%
- viability, T/C (compound 10 µM): 4.3% and 3.61% and 9.38%
- IC50 (curve of compound): 0.0482 µM and 0.0437 µM and 0.0722 µM
